US6355428B1, “Nucleic acid ligand interaction assays” (Genelabs Technologies, Inc., priority 1998, dated 2002)

Experiments:
[1] = tested on: CTTTATTATTTT (AT-rich) DNA duplex (SEQ ID NO: 2); assay: SPA direct binding assay, A/T-rich indicator duplex
Description: (§1) This technology can be applied to studies of ligand binding as disclosed herein. Example 13, below, describes the use of the assay in a high throughput screening method, using the SPA detection system. In this example, the first oligonucleotide is labeled with biotin, and is then tightly bound to streptavidin-coated SPA beads via the strong biotin/streptavidin interaction. These beads are impregnated with scintillant. The second oligonucleotide is labeled with a weak β-emitter, such as ^3H or ^33P. The radioactive second oligonucleotide is mixed with a solution of the beads under conditions at which the first and second oligonucleotides exist primarily as single strands, as described above. The signal will thus be low, as the oligonucleotides are non-hybridized. When ligand is added, the duplex form is stabilized, and the increased proximity of the radioactive isotope (e.g., ^3H, ^33P) in the second oligonucleotide causes the bead to which the first oligonucleotide is bound to scintillate. A signal thus indicates the presence of an effective binding ligand molecule; test sequences giving higher signals indicate the relative preference for different sequences.
(§2) The data in Table II compare raw signal counts from SPA assays using three different oligonucleotides and three concentrations (0, 100, and 500 nM) of the DNA binding drug distamycin. The oligonucleotides used were G/C-rich (CCGCGCC; SEQ ID NO: 6), A/T-rich (CTTTATTATTTT; SEQ ID NO: 2), or mixed sequence (GCGGTATTT; SEQ ID NO: 12) DNA duplexes. One strand of the duplex was synthesized with a 5′-biotin label, the other strand was labeled with ^33P, as described in Example 13.
(§3) Indicator oligonucleotides as shown in Table 1 were used in this assay, as shown in Table II and FIGS. 4A-E. One strand of each duplex was labeled with biotin at the 5′-end, and the complementary strand was 3′-labeled with ^33P. The two complementary strands were incubated with streptavidin-coated SPA beads (Amersham, Arlington Heights, Ill.) at room temperature in a buffer containing 20 mM HEPES, pH 7.5, 0.1 mM EDTA, and 20 mM NaCl. In the absence of ligand, and under these conditions, the oligonucleotides exist in single-stranded conformation. As a result, the oligonucleotide containing the radioactive label is not in close proximity to the SPA bead, and the light given off by the beads is low, i.e., at background. As a duplex-stabilizing ligand is added, the radioactive ^33P is brought into close proximity to the SPA bead, and the light emitted from the SPA bead increases. Accordingly, each of five known DNA-binding compounds was added in increasing concentrations, and the effect on scintillation count was observed, giving the results shown in FIGS. 4A-E.

[2] = tested on: GCGGTATTT (mixed) DNA duplex (SEQ ID NO: 12); assay: SPA direct binding assay, mixed sequence indicator duplex
Description: as §1, §2
as §3, with “The two complementary strands were incubated with streptavidin-coated SPA beads (Amersham, Arlington Heights, Ill.) at room temperature in a buffer containing 20 mM HEPES, pH 7.5, 0.1 mM EDTA, and 20 mM NaCl.” left out

[3] = tested on: A/T rich, G/C rich and mixed sequence DNA oligonucleotides; assay: SPA direct binding assay, sequence preference over panel of indicator oligonucleotides
Description: as §1, with “Example 13, below, describes the use of the assay in a high throughput screening method, using the SPA detection system. In this example, the first oligonucleotide is labeled with biotin, and is then tightly bound to streptavidin-coated SPA beads via the strong biotin/streptavidin interaction.” left out
as §3, with “increases.” for “increases. Accordingly, each of five known DNA-binding compounds was added in increasing concentrations, and the effect on scintillation count was observed, giving the results shown in FIGS. 4A-E.”

Q: Which CPM ([1]; 100 nM Distamycin, 10 mM Na+) does the source give for `Cn1cc(NC(=O)c2cc(NC(=O)c3cc(NC=O)cn3C)cn2C)cc1C(=O)NCCC(=N)N` [Distamycin, distamycin] here?
A: 2218 CPM

Q: What about the CPM ([1]; 100 nM Distamycin, 50 mM Na+) of the same molecule?
A: 2448 CPM

Q: What about the CPM ([1]; 500 nM Distamycin, 10 mM Na+) of the same molecule?
A: 3332 CPM

Q: What about the CPM ([1]; 500 nM Distamycin, 50 mM Na+) of the same molecule?
A: 3352 CPM

Q: What about the CPM ([2]; 100 nM Distamycin, 10 mM Na+) of the same molecule?
A: 597 CPM

Q: And the CPM ([2]; 100 nM Distamycin, 50 mM Na+)?
A: 868 CPM

Q: And the CPM ([2]; 500 nM Distamycin, 10 mM Na+)?
A: 1951 CPM

Q: And the CPM ([2]; 500 nM Distamycin, 50 mM Na+)?
A: 2234 CPM

Q: And the “sequence preference of binding (FIGS. 4A-E)” value ([3]; A/T rich 5′-AAAATAATAAAG, G/C rich 5′-GGCGCGG, mixed 5′-GTTGCAGATC, increasing drug)?
A: preference for A/T-rich and mixed sequences

Q: And the “duplex stabilization preference (Table II)” value ([3]; G/C-rich SEQ 6, A/T-rich SEQ 2, mixed SEQ 12 duplexes, 0, 100, 500 nM drug)?
A: preferentially stabilizes the A/T-rich duplex and the mixed duplex
